This is an account of results in PMC8266621 (2021).

SMILES strings stand for the structures.

In assay [1] the test system is 46 nt NMT1 RNA (GAAA loop), wild-type xanthine riboswitch (RNA, riboswitch) GGAGUAGAAGCGUUCAGCGGCCGAAAGGCCGCCCGGAAAUUGCUCC
In words: ITC. The settings on record: K+ 50 mM, Mg2+ 10 mM, 50 mM Tris pH 8.0, 25 °C; for binding: RNA (1.4 mM stock) titrated into 0.1 mM ligand, N.D.; for Kd: RNA titrated into 0.1 mM ligand.

Assay [2] has as its system C34G (RNA, riboswitch) GGAGUAGAAGCGUUCAGCGGCCGAAAGGCCGCCGGGAAAUUGCUCC
Description: ITC. The note with it: K+ 50 mM, Mg2+ 10 mM; 50 mM Tris pH 8.0, 25 °C; 3- to 4-fold decrease.

The test system of assay [3] is C34U (RNA, riboswitch) GGAGUAGAAGCGUUCAGCGGCCGAAAGGCCGCCUGGAAAUUGCUCC
In words: ITC. The note with it: K+ 50 mM, Mg2+ 10 mM; 50 mM Tris pH 8.0, 25 °C; 3- to 4-fold decrease.

Assay [4] relates to G35C (RNA, riboswitch) GGAGUAGAAGCGUUCAGCGGCCGAAAGGCCGCCCCGAAAUUGCUCC
Description: ITC. The settings on record: K+ 50 mM, Mg2+ 10 mM; 50 mM Tris pH 8.0, 25 °C; RNA (1.4 mM stock) titrated into 0.1 mM ligand.

Assay [5] relates to A8U (RNA, riboswitch) GGAGUAGUAGCGUUCAGCGGCCGAAAGGCCGCCCGGAAAUUGCUCC
In words: ITC. The settings on record: K+ 50 mM, Mg2+ 10 mM; 50 mM Tris pH 8.0, 25 °C; RNA (1.4 mM stock) titrated into 0.1 mM ligand.

In assay [6] the test system is G7A-A8G (RNA, riboswitch) GGAGUAAGAGCGUUCAGCGGCCGAAAGGCCGCCCGGAAAUUGCUCC
In words: ITC. The note with it: K+ 50 mM, Mg2+ 10 mM; 50 mM Tris pH 8.0, 25 °C; RNA (1.4 mM stock) titrated into 0.1 mM ligand.

In assay [7] the test system is U40A (RNA, riboswitch) GGAGUAGAAGCGUUCAGCGGCCGAAAGGCCGCCCGGAAAAUGCUCC
Description: ITC. The settings on record: K+ 50 mM, Mg2+ 10 mM; 50 mM Tris pH 8.0, 25 °C; RNA (1.4 mM stock) titrated into 0.1 mM ligand.

For assay [8], the system named is original sequence (GCCC loop) of the xanthine riboswitch (RNA, riboswitch) GGAGUAGAAGCGUUCAGCGGCCGCCCGGCCGCCCGGAAAUUGCUCC
Description: ITC. The settings on record: K+ 50 mM, Mg2+ 10 mM; 50 mM Tris pH 8.0, 25 °C; RNA titrated into 0.1 mM ligand.

Assay [9] relates to G10A (RNA, riboswitch) GGAGUAGAAACGUUCAGCGGCCGAAAGGCCGCCCGGAAAUUGCUCC
Description: ITC. The settings on record: K+ 50 mM, Mg2+ 10 mM; 50 mM Tris pH 8.0, 25 °C; RNA (1.4 mM stock) titrated into 0.1 mM ligand.

For assay [10], the system named is G10C-U40A (RNA, riboswitch) GGAGUAGAACCGUUCAGCGGCCGAAAGGCCGCCCGGAAAAUGCUCC
Description: ITC. The note with it: K+ 50 mM, Mg2+ 10 mM; 50 mM Tris pH 8.0, 25 °C; RNA (1.4 mM stock) titrated into 0.1 mM ligand.

Assay [11] concerns G7Ap (RNA, riboswitch, 2-aminopurine at 7) GGAGUAGAAGCGUUCAGCGGAAACGCCCGGAAAUUGCUCC
In words: 2-aminopurine fluorescence. The note with it: K+ 100 mM, Mg2+ 20 mM; 100 mM Tris-HCl pH 8.4, 20 °C; 0.5 μM RNA, 3 mM xanthine; qualitative.

The subject of assay [12] is C11G-G35C (RNA, riboswitch) GGAGUAGAAGGGUUCAGCGGCCGAAAGGCCGCCCCGAAAUUGCUCC
Description: ITC. The settings on record: K+ 50 mM, Mg2+ 10 mM; 50 mM Tris pH 8.0, 25 °C; RNA (1.4 mM stock) titrated into 0.1 mM ligand.

The test system of assay [13] is U40C (RNA, riboswitch) GGAGUAGAAGCGUUCAGCGGCCGAAAGGCCGCCCGGAAACUGCUCC
Description: ITC. The settings on record: K+ 50 mM, Mg2+ 10 mM; 50 mM Tris pH 8.0, 25 °C; RNA (1.4 mM stock) titrated into 0.1 mM ligand.

In assay [14] the test system is G10C (RNA, riboswitch) GGAGUAGAACCGUUCAGCGGCCGAAAGGCCGCCCGGAAAUUGCUCC
In words: ITC. The settings on record: K+ 50 mM, Mg2+ 10 mM; 50 mM Tris pH 8.0, 25 °C; RNA (1.4 mM stock) titrated into 0.1 mM ligand.

Assay [15] concerns C11U-G35A (RNA, riboswitch) GGAGUAGAAGUGUUCAGCGGCCGAAAGGCCGCCCAGAAAUUGCUCC
In words: ITC. The note with it: K+ 50 mM, Mg2+ 10 mM; 50 mM Tris pH 8.0, 25 °C; RNA (1.4 mM stock) titrated into 0.1 mM ligand.

The subject of assay [16] is A16G (RNA, riboswitch) GGAGUAGAAGCGUUCGGCGGCCGAAAGGCCGCCCGGAAAUUGCUCC
Description: ITC. The settings on record: K+ 50 mM, Mg2+ 10 mM; 50 mM Tris pH 8.0, 25 °C; 4-fold less affinity.

The subject of assay [17] is A9C (RNA, riboswitch) GGAGUAGACGCGUUCAGCGGCCGAAAGGCCGCCCGGAAAUUGCUCC
Description: ITC. The note with it: K+ 50 mM, Mg2+ 10 mM; 50 mM Tris pH 8.0, 25 °C; RNA (1.4 mM stock) titrated into 0.1 mM ligand.

Assay [18] concerns C11G (RNA, riboswitch) GGAGUAGAAGGGUUCAGCGGCCGAAAGGCCGCCCGGAAAUUGCUCC
In words: ITC. The settings on record: K+ 50 mM, Mg2+ 10 mM; 50 mM Tris pH 8.0, 25 °C; RNA (1.4 mM stock) titrated into 0.1 mM ligand.

The test system of assay [19] is C34A (RNA, riboswitch) GGAGUAGAAGCGUUCAGCGGCCGAAAGGCCGCCAGGAAAUUGCUCC
In words: ITC. The note with it: K+ 50 mM, Mg2+ 10 mM; 50 mM Tris pH 8.0, 25 °C; comparable to wild-type.

Assay [20] concerns A8Ap (RNA, riboswitch, 2-aminopurine at 8) GGAGUAGAAGCGUUCAGCGGAAACGCCCGGAAAUUGCUCC
Description: 2-aminopurine fluorescence. The settings on record: K+ 100 mM, Mg2+ 20 mM; 100 mM Tris-HCl pH 8.4, 20 °C; 0.5 μM RNA, 3 mM xanthine; qualitative.

Assay [21] has as its system G12Ap (RNA, riboswitch, 2-aminopurine at 12) GGAGUAGAAGCGUUCAGCGGAAACGCCCGGAAAUUGCUCC
Description: 2-aminopurine fluorescence. The note with it: K+ 100 mM, Mg2+ 20 mM; 100 mM Tris-HCl pH 8.4, 20 °C; 0.5 μM RNA, 3 mM xanthine; qualitative.

In assay [22] the test system is A6Ap (RNA, riboswitch, 2-aminopurine at 6) GGAGUAGAAGCGUUCAGCGGAAACGCCCGGAAAUUGCUCC
In words: 2-aminopurine fluorescence. The note with it: K+ 100 mM, Mg2+ 20 mM; 100 mM Tris-HCl pH 8.4, 20 °C; 0.5 μM RNA, 3 mM xanthine; qualitative.

For assay [23], the system named is A16G/C33U (RNA, riboswitch) GGAGUAGAAGCGUUCGGCGGCCGAAAGGCCGCUCGGAAAUUGCUCC
In words: ITC. The note with it: K+ 50 mM, Mg2+ 10 mM; 50 mM Tris pH 8.0, 25 °C; 4-fold less affinity.

For assay [24], the system named is A8C (RNA, riboswitch) GGAGUAGCAGCGUUCAGCGGCCGAAAGGCCGCCCGGAAAUUGCUCC
Description: ITC. The note with it: K+ 50 mM, Mg2+ 10 mM; 50 mM Tris pH 8.0, 25 °C; RNA (1.4 mM stock) titrated into 0.1 mM ligand.

In assay [25] the test system is G12A (RNA, riboswitch) GGAGUAGAAGCAUUCAGCGGCCGAAAGGCCGCCCGGAAAUUGCUCC
In words: ITC. The note with it: K+ 50 mM, Mg2+ 10 mM; 50 mM Tris pH 8.0, 25 °C; 7-fold decrease.

Turning to `Nc1ncnc2c1ncn2[C@@H]1O[C@H](CO)[C@@H](O)[C@H]1O`, in [1], the binding entry is reported as “no”.

On to `Nc1ncnc2[nH]cnc12`, for which the binding result in [1] was “no”.

Turning to `O=c1[nH]cnc2c1ncn2[C@@H]1O[C@H](CO)[C@@H](O)[C@H]1O`, the binding entry in [1] is listed as “no”.

As usually defined, the Kd is the equilibrium constant for the complex coming apart. A lower Kd goes with tighter binding. Turning to `O=c1[nH]c(=O)c2[nH]cnc2[nH]1`, the binding result in assay [2] was “yes”; in [3] it was “yes”; in assay [4], “no”; in assay [5], “no”; in assay [6], “no”; in [7] it was “no”. In addition, the binding entry was “no” in assay [9]; “no” in [10]; “yes” in assay [11]; “no” in assay [12]; “no” in assay [13]; “no” in assay [14]. Further, the binding result in assay [15] was “no”; in assay [16], “yes”; in assay [17] it was “no”; in assay [18], “no”; in assay [19], “yes”; in [20], “yes”. Also, the binding result in [21] is recorded as “yes”; in assay [22], “yes”; in [23], “yes”; in [24], “no”; in [25] it was “yes”. The Kd in assay [8] was determined as 3.6 ± 0.3 µM; in [1], 4.4 ± 0.2 µM.

In turn, `O=c1[nH]c(=O)c2[nH]nnc2[nH]1` came in with a Kd in assay [1] of 3.0 ± 0.1 µM.

As to `O=c1[nH]c(=O)c2[nH]c(=O)[nH]c2[nH]1`, the dissociation constant (Kd) in [1] came out at 20.4 ± 1.7 µM.

On to `O=c1[nH]cnc2nc[nH]c12`, for which the binding entry in assay [1] is given as “no”.
